Measurements as given in patent US7803792B2, “Quaternary ammonium compounds” (Asahi Kasei Pharma Corporation, priority 2002, dated 2010).

What was measured:
human IBAT = biological target: T1, human IBAT (Homo sapiens, UniProt Q12908); experiment: In vitro assay of temporarily expressed human IBAT transporter using Cos 7 cells (Test Example 8); type: cell-based; conditions: Cos 7 cells temporarily expressing human IBAT; [3H] taurocholate 8 μM, 37° C., 60 minutes
T1 construct: expressed in transfected cells; host or cells: Cos 7
T1 sequence (Q12908 1-348): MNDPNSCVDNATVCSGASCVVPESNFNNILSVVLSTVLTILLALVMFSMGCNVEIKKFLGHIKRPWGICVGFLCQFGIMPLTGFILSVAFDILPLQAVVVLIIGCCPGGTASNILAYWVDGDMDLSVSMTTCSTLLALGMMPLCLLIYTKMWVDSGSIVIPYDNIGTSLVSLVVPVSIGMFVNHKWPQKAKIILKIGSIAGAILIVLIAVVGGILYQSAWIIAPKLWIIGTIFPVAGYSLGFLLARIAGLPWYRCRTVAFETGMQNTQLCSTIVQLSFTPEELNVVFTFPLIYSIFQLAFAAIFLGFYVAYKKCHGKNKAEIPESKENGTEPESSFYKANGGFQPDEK
Method: In Vitro Assay of Compounds Which Inhibit Temporarily Expressed Human IBAT Transporter or Rat IBAT Transporter Using Cos 7 Cells
In this test example, the in vitro assay of the compounds which inhibit temporarily expressed human IBAT transporter or rat IBAT transporter using Cos cells was carried out according to the method described in Am. J. Physiol., 274, G157-169.
That is, […] Cos 7 were inoculated on a 24-well cell plate. One day later, 0.3 μg per well of cDNA of a human IBAT or a rat IBAT was transfected by using FuGENE6 (manufactured by ROCHE PHARMACEUTICAL CO., LTD.). For the assay, the cells cultured for one day after the transfection were used and the following procedure was followed. The cells were washed once with an assay buffer, Hank's buffer solution containing 25 mM glucose and with 10 mM HEPES (pH 7.4), and then the assay buffer was replaced by an assay buffer to which the test compound was added. After adding [^3H] taurocholate to a final concentration of 8 μM, the cells were incubated at 37° C. for 60 minutes. [^3H] taurocholate was allowed to be incorporated in Cos 7 cells through human IBAT or rat IBAT. The reaction was stopped by washing twice with a buffer prepared by adding 1 mM taurocholate to the assay buffer and lyzing the cells with 0.2M NaOH. Measurement of radioactivity was carried out by introducing the cell lyzate in 4 ml of liquid scintillation cocktail, stirring the mixture well, and then measuring the radioactivity by a scintillation counter.

Caco 2 cells = experiment: Toxicity with respect to alimentary canal: cytotoxicity to Caco 2, LDH activity (Test Example 12); type: cell-based, human; conditions: LDH activity after 2 hours, relative to cytolytic agent = 100%
Method: Toxicity With Respect to Alimentary Canal
To evaluate the toxicity of the compounds of the present invention to the alimentary canal, the cytotoxicity to Caco 2, which is a human originated small intestine epithelial cell line, was tested by referring to the method of Bestwick C S et al. [Biochimica et Biophysica Acta 1474: 47-55, 1999].
That is, Caco 2 cells (purchased from ATCC) were inoculated on a 96-well plate such that there were 10,000 cells/well [MEM-E medium, 10% FBS (Fetal Bovine Serum), 1% NEAA (Non Essential Amino Acid) solution, (both manufactured by GIBCO PHARMACEUTICAL COMPANY)]. After culturing for 48 hours, the test compounds were diluted with the culture medium and added to the respective wells. After 2 hours, 50 μl of the culture broth was collected and the LDH activity in the collected culture broth was measured by using an LDH activity measuring kit (CytoTox 96 Non-Radioactive Cytotoxicity Assay, manufactured by PROMEGA CORPORATION). Relative activities were calculated assuming the LDH activity as 100% when the Caco 2 cells were treated with the cytolytic agent and the obtained relative activities were taken as cytotoxicities to Caco 2 cell.

Row | Structure (SMILES) | IC50 (human IBAT) | also measured
1 | CCCCC1(CCCC)CS(=O)(=O)c2ccc(N(C)C)cc2C(c2cccc(NC(=S)Nc3ccc(C[N+]45CCN(CC4)CC5)cc3)c2)N1.[Br-] (stereo not drawn) [Example 3705] | 54 nM | Toxicity (%) to Caco 2 (Caco 2 cells; 3 μM): <1%; Toxicity (%) to Caco 2 (Caco 2 cells; 10 μM): <1%; Toxicity (%) to Caco 2 (Caco 2 cells; 30 μM): <1%
2 | CCCCC1(CCCC)CS(=O)(=O)c2ccc(N(C)C)cc2C(c2cccc(NC(=S)Nc3ccc(C[n+]4ccc(C)cc4)cc3)c2)N1.[Br-] (stereo not drawn) [Example 3709] | 49 nM | Toxicity (%) to Caco 2 (Caco 2 cells; 3 μM): <1%; Toxicity (%) to Caco 2 (Caco 2 cells; 10 μM): <1%; Toxicity (%) to Caco 2 (Caco 2 cells; 30 μM): <1%
3 | CCCCc1ccc[n+](Cc2ccc(NC(=S)Nc3cccc(C4NC(CCCC)(CCCC)CS(=O)(=O)c5ccc(N(C)C)cc54)c3)cc2)c1.[Br-] (stereo not drawn) [Example 3723] | 25 nM | Toxicity (%) to Caco 2 (Caco 2 cells; 3 μM): <1%; Toxicity (%) to Caco 2 (Caco 2 cells; 10 μM): <1%; Toxicity (%) to Caco 2 (Caco 2 cells; 30 μM): <1%
4 | CCCCC1(CCCC)CS(=O)(=O)c2ccc(N(C)C)cc2C(c2cccc(NC(=S)Nc3cccc(C[N+](C)(CCC)CCC)c3)c2)N1 (stereo not drawn) [Example 4243] | 78 nM | –
5 | C=CC[N+](C)(C)Cc1cccc(NC(=S)Nc2cccc(C3NC(CCCC)(CCCC)CS(=O)(=O)c4ccc(N(C)C)cc43)c2)c1 (stereo not drawn) [Example 4246] | 72 nM | –
6 | C=CC[N+](CC)(CC)Cc1cccc(NC(=S)Nc2cccc(C3NC(CCCC)(CCCC)CS(=O)(=O)c4ccc(N(C)C)cc43)c2)c1 (stereo not drawn) [Example 4247] | 91 nM | –
7 | CCCCC1(CCCC)CS(=O)(=O)c2ccc(N(C)C)cc2C(c2cccc(NC(=S)Nc3cccc(C[N+](C)(C)CCc4ccccc4)c3)c2)N1 (stereo not drawn) [Example 4259] | 67 nM | –
8 | CCCCC1(CCCC)CS(=O)(=O)c2ccc(N(C)C)cc2C(c2cccc(NC(=S)Nc3cccc(C[N+](C)(CC)Cc4ccccc4)c3)c2)N1 (stereo not drawn) [Example 4260] | 74 nM | –
9 | C=Cc1ccc(C[N+](C)(C)Cc2cccc(NC(=S)Nc3cccc(C4NC(CCCC)(CCCC)CS(=O)(=O)c5ccc(N(C)C)cc54)c3)c2)cc1 (stereo not drawn) [Example 4263] | 72 nM | –
10 | CCCCC1(CCCC)CS(=O)(=O)c2ccc(N(C)C)cc2C(c2cccc(NC(=S)Nc3cccc(C[N+](C)(C)Cc4cccc(OC)c4)c3)c2)N1 (stereo not drawn) [Example 4371] | 74 nM | –
11 | CCCCC1(CCCC)CS(=O)(=O)c2ccc(N(C)C)cc2C(c2cccc(NC(=S)Nc3cccc(C[N+]4(CC)CCCCC4)c3)c2)N1 (stereo not drawn) [Example 4405] | 62 nM | –
12 | C=CC[N+]1(Cc2cccc(NC(=S)Nc3cccc(C4NC(CCCC)(CCCC)CS(=O)(=O)c5ccc(N(C)C)cc54)c3)c2)CCCCC1 (stereo not drawn) [Example 4408] | 73 nM | –
13 | CCCCC1(CCCC)CS(=O)(=O)c2ccc(N(C)C)cc2C(c2cccc(NC(=S)Nc3cccc(C[N+]4(C)CCN(C)CC4)c3)c2)N1 (stereo not drawn) [Example 4479] | 78 nM | –
14 | CCCCC1(CCCC)CS(=O)(=O)c2ccc(N(C)C)cc2C(c2cccc(NC(=S)Nc3cccc(C[N+]45CCC(c6ccccc6)(CC4)CC5)c3)c2)N1 (stereo not drawn) [Example 4513] | 92 nM | –
15 | CCCCC1(CCCC)CS(=O)(=O)c2ccc(N(C)C)cc2C(c2cccc(NC(=S)Nc3cccc(C[N+]45CCN(CC4)CC5)c3)c2)N1 (stereo not drawn) [Example 4522] | 97 nM | –
16 | CCCCC1(CCCC)CS(=O)(=O)c2ccc(N(C)C)cc2C(c2cccc(NC(=S)Nc3cccc(C[n+]4ccc(CC)cc4)c3)c2)N1 (stereo not drawn) [Example 4527] | 73 nM | –
17 | CCCCC1(CCCC)CS(=O)(=O)c2ccc(N(C)C)cc2C(c2cccc(NC(=S)Nc3cccc(C[n+]4ccc(CCC)cc4)c3)c2)N1 (stereo not drawn) [Example 4528] | 91 nM | –

Row | Structure (SMILES) | IC50 (human IBAT) | also measured
18 | CCCCC1(CCCC)CS(=O)(=O)c2ccc(N(C)C)cc2C(c2cccc(NC(=S)Nc3cccc(C[n+]4ccc(-c5ccccc5)cc4)c3)c2)N1 (stereo not drawn) [Example 4534] | 76 nM | –
19 | CCCCC1(CCCC)CS(=O)(=O)c2ccc(N(C)C)cc2C(c2cccc(NC(=S)Nc3cccc(C[n+]4cccc(CC)c4)c3)c2)N1 (stereo not drawn) [Example 4539] | 64 nM | –
20 | CCCCC1(CCCC)CS(=O)(=O)c2ccc(N(C)C)cc2C(c2cccc(NC(=S)Nc3cccc(C[n+]4cccc(-c5cccs5)c4)c3)c2)N1 (stereo not drawn) [Example 4543] | 82 nM | –
21 | CCCCC1(CCCC)CS(=O)(=O)c2ccc(N(C)C)cc2C(c2cccc(NC(=S)Nc3cccc(C[n+]4cc(C)cc(C)c4)c3)c2)N1 (stereo not drawn) [Example 4546] | 87 nM | –
22 | CCCCC1(CCCC)CS(=O)(=O)c2ccc(N(C)C)cc2C(c2cccc(NC(=S)Nc3cccc(C[n+]4cc(C)cc(-c5ccccc5)c4)c3)c2)N1 (stereo not drawn) [Example 4547] | 72 nM | –
23 | CCCCC1(CCCC)CS(=O)(=O)c2ccc(N(C)C)cc2C(c2cccc(NC(=S)Nc3cccc(C[n+]4ccc(OC)cc4)c3)c2)N1 (stereo not drawn) [Example 4551] | 76 nM | –
24 | CCCCC1(CCCC)CS(=O)(=O)c2ccc(N(C)C)cc2C(c2cccc(NC(=S)Nc3cccc(C[n+]4cccc5ccccc54)c3)c2)N1 (stereo not drawn) [Example 4585] | 78 nM | –
25 | CCCCC1(CCCC)CS(=O)(=O)c2ccc(N(C)C)cc2C(c2cccc(NC(=S)Nc3cccc(C[n+]4cccc5cc(C)ccc54)c3)c2)N1 (stereo not drawn) [Example 4587] | 60 nM | –
26 | CCCCC1(CCCC)CS(=O)(=O)c2ccc(N(C)C)cc2C(c2cccc(NC(=S)Nc3cccc(C[n+]4cccc5cc(C(C)C)ccc54)c3)c2)N1 (stereo not drawn) [Example 4589] | 46 nM | –
27 | CCCCC1(CCCC)CS(=O)(=O)c2ccc(N(C)C)cc2C(c2cccc(NC(=S)Nc3cccc(C[n+]4ccc5ccccc5c4)c3)c2)N1 (stereo not drawn) [Example 4600] | 78 nM | –
28 | CCCCC1(CCCC)CS(=O)(=O)c2ccc(N(C)C)cc2C(c2cccc(NC(=S)Nc3cccc(C[N+](C)(C)C(C)c4cccc5ccccc45)c3)c2)N1 (stereo not drawn) [Example 4605] | 79 nM | –
29 | CCCCC1(CCCC)CS(=O)(=O)c2ccc(N(C)C)cc2C(c2cccc(NC(=S)Nc3ccc(C[n+]4ccccc4C)cc3)c2)N1 (stereo not drawn) [Example 5407] | 52 nM | –
30 | CCCCC1(CCCC)CS(=O)(=O)c2ccc(N(C)C)cc2C(c2cccc(NC(=S)Nc3ccc(C[n+]4c(C)cc(C)cc4C)cc3)c2)N1 (stereo not drawn) [Example 5409] | 42 nM | –
31 | CCCCC1(CCCC)CS(=O)(=O)c2ccc(N(C)C)cc2C(c2cccc(NC(=S)Nc3ccc(C[n+]4cccc(F)c4)cc3)c2)N1 (stereo not drawn) [Example 5416] | 77 nM | –
32 | CCCCC1(CCCC)CS(=O)(=O)c2ccc(N(C)C)cc2C(c2cccc(NC(=S)Nc3ccc(C[n+]4cc(O)cc(Cl)c4)cc3)c2)N1 (stereo not drawn) [Example 5417] | 26 nM | –
33 | CCCCC1(CCCC)CS(=O)(=O)c2ccc(N(C)C)cc2C(c2cccc(NC(=S)Nc3ccc(C[n+]4cccc(Cl)c4)cc3)c2)N1 (stereo not drawn) [Example 5418] | 69 nM | –
34 | CCCCCC1(CCCCC)CS(=O)(=O)c2ccc(N(C)C)cc2C(c2cccc(NC(=S)Nc3ccc(C[N+](C)(C)Cc4ccccc4)cc3)c2)N1.[Br-] (stereo not drawn) [Example 5480] | – | Toxicity (%) to Caco 2 (Caco 2 cells; 3 μM): <1%; Toxicity (%) to Caco 2 (Caco 2 cells; 10 μM): <1%; Toxicity (%) to Caco 2 (Caco 2 cells; 30 μM): <1%
